26 compounds from US8354422B2, “Pyrimidine inhibitors of kinase activity” (Abbott Laboratories Inc., priority 2009, dated 2013) can be followed below.

Each structure is given as a SMILES string. pIC50: −log10 of the molar value. A value given as a limit tells only on which side of the number the result lay.

As a reminder, the pIC50 is the IC50 on a negative log10 scale, so that one unit is a factor of ten.

This assay deals with T1, C-terminal GST-tagged, recombinant, human IGF-1R, amino acids 954-1367 (Homo sapiens, UniProt P08069).
T1 construct: human IGF-1R, amino acids 954-1367 expressed by baculovirus in Sf21 cells; GST (C); purchased Cell Signaling Technology; host or cells: baculovirus in Sf21 cells
T1 sequence (P08069 954-1367): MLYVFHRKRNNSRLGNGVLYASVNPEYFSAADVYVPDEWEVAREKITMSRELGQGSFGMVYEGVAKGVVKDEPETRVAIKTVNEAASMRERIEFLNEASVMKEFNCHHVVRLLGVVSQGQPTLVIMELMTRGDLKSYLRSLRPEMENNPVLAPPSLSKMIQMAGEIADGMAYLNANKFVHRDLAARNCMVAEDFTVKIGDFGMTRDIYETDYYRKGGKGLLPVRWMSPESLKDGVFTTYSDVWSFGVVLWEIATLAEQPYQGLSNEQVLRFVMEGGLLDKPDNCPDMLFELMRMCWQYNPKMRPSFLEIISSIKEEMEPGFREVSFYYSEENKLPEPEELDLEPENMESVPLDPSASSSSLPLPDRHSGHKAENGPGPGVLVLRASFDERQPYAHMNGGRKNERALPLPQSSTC
The experiment in a line: IGF-1R kinase activity, homogenous time-resolved fluorescence (HTRF) in vitro kinase assay. The class given is biochemical. The note with it: IGF-1R kinase HTRF assay, ATP 50 μM, biotinylated peptide substrate 0.5 μM, 60 minutes at room temperature. As for the experimental part: IGF-1R kinase activity was assayed by a homogenous time-resolved fluorescence (HTRF) in vitro kinase assay (Mathis, G., HTRF(R) Technology. J Biomol Screen, 1999. 4(6): p. 309-314). Specifically, 10 μL C-terminal GST-tagged, recombinant, human IGF-1R, amino acids 954-1367 expressed by baculovirus in Sf21 cells (Cell Singaling Technology) was mixed with 10 μL inhibitor (various concentrations, 2% final DMSO) and 10 μL of ATP (50 μM final concentration) in reaction buffer (50 mM HEPES, pH […], 2 mM MnCl2, 0.1% BSA and 1 mM DTT, 40 μL final volume). The reaction was initiated by addition of 10 μL of biotinylated peptide substrate (Biotin-Ahx-[…], 0.5 μM final concentration) in a black 384-well plate (Packard). After 60 minutes incubation at room temperature, the reaction was quenched by addition of 60 μL stop/revelation buffer to give 30 mM EDTA, 1 μg/mL streptavidin-APC (Prozyme), 50 ng/mL anti-phosphotyrosine mAb PT66-K Europium Cryptate, 30 mM HEPES, pH 7.5, 120 mM KF, 0.005% Tween-20, 0.05% BSA). The quenched reaction was allowed to stand at room temperature for 1 hour and then read in a time-resolved fluorescence detector (Envision, Perkin Elmer) at 615 nm and 665 nm simultaneously. The ratio between the signal of 615 nm and 665 nm was used in the calculation of the IC50.
For orientation: Time-resolved FRET reads energy transfer from a long-lived donor to a nearby acceptor.
On to `Fc1ccc(Nc2nccc(-c3c(-c4ccc(OCc5ccccc5)cc4)nc4ccccn34)n2)c(F)c1` [Example 29, 4-{2-[4-(benzyloxy)phenyl]imidazo[1,2-a]pyridin-3-yl}-N-(2,4-difluorophenyl)pyrimidin-2-amine], for which the pIC50 was below 6.00.

As to `COc1cc(-c2nc3ccccn3c2-c2ccnc(Nc3cccc(OCCN4CCCC4)c3)n2)ccc1OCc1ccccc1` [Example 30, 4-{2-[4-(benzyloxy)-3-methoxyphenyl]imidazo[1,2-a]pyridin-3-yl}-N-[3-(2-pyrrolidin-1-ylethoxy)phenyl]pyrimidin-2-amine], the pIC50 is above 7.60.

`CCN(CCO)c1cccc(Nc2nccc(-c3c(-c4ccc(OCc5ccccc5)c(OC)c4)nc4ccccn34)n2)c1` [Example 31, 2-[{3-[(4-{2-[4-(benzyloxy)-3-methoxyphenyl]imidazo[1,2-a]pyridin-3-yl}pyrimidin-2-yl)amino]phenyl}(ethyl)amino]ethanol]: the pIC50 was 6.30 to 7.00.

Regarding `COc1cc(-c2nc3ccccn3c2-c2ccnc(Nc3ccc(N4CCS(=O)(=O)CC4)cc3)n2)ccc1OCc1ccccc1` [Example 32, 4-{2-[4-(benzyloxy)-3-methoxyphenyl]imidazo[1,2-a]pyridin-3-yl}-N-[4-(1,1-dioxidothiomorpholin-4-yl)phenyl]pyrimidin-2-amine], the pIC50 was 6.30 to 7.00.

For the compound `COc1cc(N2CCC(N(C)C)CC2)ccc1Nc1nccc(-c2c(-c3ccc(OCc4ccccc4)c(OC)c3)nc3ccccn23)n1` [Example 33, 4-{2-[4-(benzyloxy)-3-methoxyphenyl]imidazo[1,2-a]pyridin-3-yl}-N-{4-[4-(dimethylamino)piperidin-1-yl]-2-methoxyphenyl}pyrimidin-2-amine], the pIC50 was 7.00 to 7.60.

On to `COc1ccc(S(C)(=O)=O)cc1Nc1nccc(-c2c(-c3ccc(OCc4ccccc4)c(OC)c3)nc3ccccn23)n1` [Example 34, 4-{2-[4-(benzyloxy)-3-methoxyphenyl]imidazo[1,2-a]pyridin-3-yl}-N-[2-methoxy-5-(methylsulfonyl)phenyl]pyrimidin-2-amine], for which the negative logarithm of the IC50 (pIC50) was 7.00 to 7.60.

With `COc1ccc(S(C)(=O)=O)cc1Nc1nccc(-c2c(-c3ccc(OCc4ccccc4)cc3)nc3ccccn23)n1` [Example 35, 4-{2-[4-(benzyloxy)phenyl]imidazo[1,2-a]pyridin-3-yl}-N-[2-methoxy-5-(methylsulfonyl)phenyl]pyrimidin-2-amine], the negative-log IC50 (pIC50) is 6.30 to 7.00.

`COc1cc(-c2nc3ccccn3c2-c2ccnc(Nc3ccc(N4CCC(N(C)C)CC4)cc3)n2)ccc1OCc1ccccc1` [Example 36, 4-{2-[4-(benzyloxy)-3-methoxyphenyl]imidazo[1,2-a]pyridin-3-yl}-N-{4-[4-(dimethylamino)piperidin-1-yl]phenyl}pyrimidin-2-amine]: the pIC50 is above 7.60.

As for `COc1cc(-c2nc3ccccn3c2-c2ccnc(Nc3cnn(CCN4CCCC4)c3)n2)ccc1OCc1ccccc1` [Example 37, 4-{2-[4-(benzyloxy)-3-methoxyphenyl]imidazo[1,2-a]pyridin-3-yl}-N-[1-(2-pyrrolidin-1-ylethyl)-1H-pyrazol-4-yl]pyrimidin-2-amine], the pIC50 was 6.30 to 7.00.

In the case of `COc1cc(-c2nc3ccccn3c2-c2ccnc(Nc3cccc(CCN(C)CCO)c3)n2)ccc1OCc1ccccc1` [Example 38, 2-[(2-{3-[(4-{2-[4-(benzyloxy)-3-methoxyphenyl]imidazo[1,2-a]pyridin-3-yl}pyrimidin-2-yl)amino]phenyl}ethyl)(methyl)amino]ethanol], the pIC50 is 7.00 to 7.60.

Regarding `COc1cc(N2CCOCC2)ccc1Nc1nccc(-c2c(-c3ccc(OCc4ccccc4)c(OC)c3)nc3ccccn23)n1` [Example 39, 4-{2-[4-(benzyloxy)-3-methoxyphenyl]imidazo[1,2-a]pyridin-3-yl}-N-(2-methoxy-4-morpholin-4-ylphenyl)pyrimidin-2-amine], the pIC50 was 6.30 to 7.00.

With `COc1ccc(C(F)(F)F)cc1Nc1nccc(-c2c(-c3ccc(OCc4ccccc4)c(OC)c3)nc3ccccn23)n1` [Example 40, 4-{2-[4-(benzyloxy)-3-methoxyphenyl]imidazo[1,2-a]pyridin-3-yl}-N-[2-methoxy-5-(trifluoromethyl)phenyl]pyrimidin-2-amine], the pIC50 was below 6.00.

In the case of `COc1ccc(C(F)(F)F)cc1Nc1nccc(-c2c(-c3ccc(OCc4ccccc4)cc3)nc3ccccn23)n1` [Example 41, 4-{2-[4-(benzyloxy)phenyl]imidazo[1,2-a]pyridin-3-yl}-N-[2-methoxy-5-(trifluoromethyl)phenyl]pyrimidin-2-amine], the pIC50 is below 6.00.

For `COc1cc(N(C)C)ccc1Nc1nccc(-c2c(-c3ccc(OCc4ccccc4)c(OC)c3)nc3ccccn23)n1` [Example 42, N^1-(4-{2-[4-(benzyloxy)-3-methoxyphenyl]imidazo[1,2-a]pyridin-3-yl}pyrimidin-2-yl)-2-methoxy-N^4,N^4-dimethylbenzene-1,4-diamine], the pIC50 is 6.30 to 7.00.

On to `COc1cc(-c2nc3ccccn3c2-c2ccnc(Nc3cnn(CCN(C)C)c3)n2)ccc1OCc1ccccc1` [Example 43, 4-{2-[4-(benzyloxy)-3-methoxyphenyl]imidazo[1,2-a]pyridin-3-yl}-N-{1-[2-(dimethylamino)ethyl]-1H-pyrazol-4-yl}pyrimidin-2-amine], for which the pIC50 was 6.30 to 7.00.

In the case of `COc1cc(-c2nc3ccccn3c2-c2ccnc(Nc3ccc(N4CCN(CCO)CC4)cc3)n2)ccc1OCc1ccccc1` [Example 44, 2-(4-{4-[(4-{2-[4-(benzyloxy)-3-methoxyphenyl]imidazo[1,2-a]pyridin-3-yl}pyrimidin-2-yl)amino]phenyl}piperazin-1-yl)ethanol], the pIC50 was 7.00 to 7.60.

For `COc1cc(NCC(C)(C)O)ccc1Nc1nccc(-c2c(-c3ccc(OCc4ccccc4)c(OC)c3)nc3ccccn23)n1` [Example 45, 1-({4-[(4-{2-[4-(benzyloxy)-3-methoxyphenyl]imidazo[1,2-a]pyridin-3-yl}pyrimidin-2-yl)amino]-3-methoxyphenyl}amino)-2-methylpropan-2-ol], the pIC50 is 6.30 to 7.00.

Take `COc1cc(N)ccc1Nc1nccc(-c2c(-c3ccc(OCc4ccccc4)c(OC)c3)nc3ccccn23)n1` [Example 46, N^1-(4-{2-[4-(benzyloxy)-3-methoxyphenyl]imidazo[1,2-a]pyridin-3-yl}pyrimidin-2-yl)-2-methoxybenzene-1,4-diamine]: the pIC50 was 7.00 to 7.60.

For the compound `COc1cc(-c2nc3ccccn3c2-c2ccnc(Nc3cnn(CCO)c3)n2)ccc1OCc1ccccc1` [Example 47, 2-{4-[(4-{2-[4-(benzyloxy)-3-methoxyphenyl]imidazo[1,2-a]pyridin-3-yl}pyrimidin-2-yl)amino]-1H-pyrazol-1-yl}ethanol], the negative logarithm of the IC50 (pIC50) is 7.00 to 7.60.

For the compound `COc1cc(N(C)CCO)ccc1Nc1nccc(-c2c(-c3ccc(OCc4ccccc4)c(OC)c3)nc3ccccn23)n1` [Example 48, 2-[{4-[(4-{2-[4-(benzyloxy)-3-methoxyphenyl]imidazo[1,2-a]pyridin-3-yl}pyrimidin-2-yl)amino]-3-methoxyphenyl}(methyl)amino]ethanol], the pIC50 is 6.30 to 7.00.

Turning to `CN(C)CCc1cccc(Nc2nccc(-c3c(-c4ccc(OCc5ccccc5)c(C(F)(F)F)c4)nc4ccccn34)n2)c1` [Example 49, 4-{2-[4-(benzyloxy)-3-(trifluoromethyl)phenyl]imidazo[1,2-a]pyridin-3-yl}-N-{3-[2-(dimethylamino)ethyl]phenyl}pyrimidin-2-amine], the pIC50 was below 6.00.

In the case of `CCc1cc(-c2nc3ccccn3c2-c2ccnc(Nc3cccc(CCN(C)C)c3)n2)ccc1OCc1ccccc1` [Example 50, 4-{2-[4-(benzyloxy)-3-ethylphenyl]imidazo[1,2-a]pyridin-3-yl}-N-{3-[2-(dimethylamino)ethyl]phenyl}pyrimidin-2-amine], the pIC50 is below 6.00.

For the compound `COc1cc(N2CCSCC2)ccc1Nc1nccc(-c2c(-c3ccc(OCc4ccccc4)c(OC)c3)nc3ccccn23)n1` [Example 51, 4-{2-[4-(benzyloxy)-3-methoxyphenyl]imidazo[1,2-a]pyridin-3-yl}-N-(2-methoxy-4-thiomorpholin-4-ylphenyl)pyrimidin-2-amine], the pIC50 is 6.00 to 6.30.

As for `COc1ccc(N2CCOCC2)cc1Nc1nccc(-c2c(-c3ccc(OCc4ccccc4)c(OC)c3)nc3ccccn23)n1` [Example 52, 4-{2-[4-(benzyloxy)-3-methoxyphenyl]imidazo[1,2-a]pyridin-3-yl}-N-(2-methoxy-5-morpholin-4-ylphenyl)pyrimidin-2-amine], the pIC50 is 6.30 to 7.00.

Regarding `COc1cc(NCC(=O)O)ccc1Nc1nccc(-c2c(-c3ccc(OCc4ccccc4)c(OC)c3)nc3ccccn23)n1` [Example 53, N-{4-[(4-{2-[4-(benzyloxy)-3-methoxyphenyl]imidazo[1,2-a]pyridin-3-yl}pyrimidin-2-yl)amino]-3-methoxyphenyl}glycine], the pIC50 was 6.30 to 7.00.

With `COc1cc(-c2nc3ccccn3c2-c2ccnc(Nc3cnn(CCN4CCCCC4)c3)n2)ccc1OCc1ccccc1` [Example 54, 4-{2-[4-(benzyloxy)-3-methoxyphenyl]imidazo[1,2-a]pyridin-3-yl}-N-[1-(2-piperidin-1-ylethyl)-1H-pyrazol-4-yl]pyrimidin-2-amine], the pIC50 is 6.30 to 7.00.
